# Experimental data reported in patent US20190060284A1, “PHARMACOLOGICAL MODULATORS OF NAV1.1 VOLTAGE-GATED SODIUM CHANNELS ASSOCIATED WITH MECHANICAL PAIN” (priority 2016, published 2019).
# Entries after “also recorded” stand apart in the source; their conditions may differ. Like-named read-outs stand apart in the source and are kept apart here.
# Columns and labels:
# [1] = test system: NTG induced mechanical allodynia; experiment: NTG-induced hind paw mechanical allodynia (migraine model); type: in vivo, mouse; details: for allodynia threshold compared to baseline threshold: 75 and 120 min
# Experimental: NTG-induced hind paw mechanical allodynia. Mechanical thresholds were determined with von Frey monofilaments (VFF; eight filaments, range 0.008-2 g, Stoelting Co) using the Dixon up-and-down method^51. For drug testing, 48 naive C57Bl/6 male mice (20-30 g) were divided randomly to the following groups (n=12 mice per group): Vehicle/Cyclodextrin, Vehicle/Compound B 75 mg/kg, NTG/Cyclodextrin, and NTG/Compound B 75 mg/kg. Prior to testing all animals were handled for 1 week in the behavior room during mid-morning using the cupped hand technique^52. On each testing day, a maximum of 12 animals was used, divided equally into the four groups. Mice were confined in clear acrylic cages (8.7″×8.7″×5″) divided into four chambers, each on a raised wire mesh platform that allowed full access to the tested paws. Mice were acclimated for two hours, on the day of testing and one day prior. Mechanical thresholds were evaluated before (baseline), and 75 and 120 min after i.p. administration of 10 mg/kg NTG (or vehicle), in accordance with NTG's time-to-peak-effect (TPE) in this model (data not shown). 40% Cyclodextrin in saline or 75 mg/kg Compound B dissolved in 40% cyclodextrin in saline, was administered contralateral to NTG administration thirty minutes before the first post-NTG time point, in accordance with compound B's TPE. Each filament was applied perpendicular to the center of each of the hind paw five times, spaced 1 sec apart, starting with the middle VFF (0.4 g). In the absence of a response, the next VFF in the series was applied until a response was witnessed. Response to VFF was recorded as an immediate withdrawal of the tested hind paw to the applied stimulus, with or without an observed licking behavior. The withdrawal threshold was quantified as the mean of both hind paws. The experimenter was blind to the treatment group.
# [2] = test system: splanchnic colonic afferents (high-threshold mechanoreceptors); experiment: Ex vivo gut-nerve single-unit recordings; type: cell-based, mouse; details: for mechanosensitivity of colonic nociceptors: Compound B 100 μM; for Hm1a-induced mechanical hypersensitivity in the presence of the blocker: Hm1a 100 nM, ICA 500 nM or Compound B 100 μM
# Experimental: In vitro single-unit extracellular recordings of action potential discharge were made from splanchnic colonic afferents. Recordings were made from healthy or CVH mice using standard protocols^61-63. Baseline mechanosensitivity was determined in response to application of a 2 g von frey hair (vfh) probe to the afferent receptive field for 3 seconds. This process was repeated 3-4 times, separated each time by 10 seconds. Mechanosensitivity was then re-tested after the application of Hm1a (100 nM) or the Nav1.1 blocker ICA-121432 (500 nM) or a combination of both ICA-121432 (500 nM) and Hm1a (100 nM). Data are presented as spikes/s and are expressed as mean±SEM.
# Colitis was induced by administration of TNBS as described previously^62,63. Briefly, 13 week old anaesthetized mice were administered an intra-colonic enema of 0.1 mL TNBS (130 μg/mL in 30% EtOH) via a polyethylene catheter^62,63,66. Histological examination of mucosal architecture, cellular infiltrate, crypt abscesses, and goblet cell depletion confirmed significant TNBS-induced damage by day 3 post-treatment, which largely recovered by day 7, and fully recovered by 28 days. […] As such, they are termed ‘chronic visceral hypersensitivity’ (CVH) mice^62,63,66,68.
# Ex vivo single-unit extracellular recordings of action potential discharge were made from splanchnic colonic afferents. Recordings were made from healthy or CVH mice using standard protocols (e.g. Brierley, S. M., Jones, R. C., III, Gebhart, G. F. & Blackshaw, L. A. Splanchnic and pelvic mechanosensory afferents signal different qualities of colonic stimuli in mice. Gastroenterology 127, 166-178 (2004)). Baseline mechanosensitivity was determined in response to application of a 2-g Von Frey hair probe to the afferent receptive field for 3 s. This process was repeated 3-4 times, separated each time by 10 s. Mechanosensitivity was then re-tested after the application of Hm1a (100 nM) or the Nav1.1 blocker compound B (100 μM) or a combination thereof. Instantaneous frequency is defined as the inverse of the time interval between an action potential and the previous action potential. Group data are presented as spikes per second and are expressed as mean±s.e.m.
# [3] = test system: cultured somatosensory neurons (TG, DRG); experiment: Ratiometric calcium imaging of cultured sensory neurons; type: cell-based, mice or rats
# [4] = test system: mechanical response thresholds; experiment: Von Frey mechanical response thresholds after intraplantar toxin; type: in vivo, mouse; details: 500 nM in 10 μl intraplantar, WT mice, 30 minutes after injection
# Experimental: For behavioral experiments in FIG. 4, adult mice (6-12 weeks) were used. Male and female mice were first considered separately in hindpaw nocifensive response experiments. […] Therefore, male and female behavioral responses were pooled and subsequent experiments were performed on both male and female mice for CKO and WT littermate experiments, or only male mice for other conditions (e.g. Cap ablation). Nocifensive responses were recorded during a 20 minute observation period immediately following intraplantar injections (10 μl PBS with or without 5 μM Hm1a). Licking/biting behavior was scored as seconds of behavior with the experimenter blinded to injection condition and experimental cohort (WT, CKO or Cap Ablated mice). Hargreaves and Von Frey tests were performed 30 minutes after intraplantar injection of 500 nM Hm1a or Hm1b. I.t. cap ablation was performed as previously described^34, and i.t. cap treated mice were tested on a hot plate to ensure ablation of TRPV1+afferents. Ablation was also confirmed by histology.
# [5] = Hm1a-sensitive P0 mouse TG neurons
compound,measurement,setting,value
Cc1c(C(N)=O)nnn1Cc1ccccc1 [Compound B],NTG induced tactile allodynia,[1]; Compound B 75 mg/kg in 40% cyclodextrin in saline,able to reverse NTG induced tactile allodynia
same,allodynia threshold compared to baseline threshold,[1]; NTG 10 mg/kg i.p. + Compound B 75 mg/kg,no significant difference
same,allodynia threshold compared to baseline threshold,[1]; Vehicle + Compound B 75 mg/kg,no significant difference
same,mechanosensitivity of colonic nociceptors,"[2]; CVH mice, ICA-121431 500 nM",reduced mechanosensitivity in a sub-population; also recorded: inhibition of mechanosensitivity of a subpopulation
same,Hm1a-induced mechanical hypersensitivity in the presence of the blocker,[2]; CVH mice,not affected by the presence of Hm1a; also recorded: prevents Hm1a-induced potentiation
same,mechanosensitivity of colonic nociceptors,[2]; healthy mice,inhibits the mechanosensitivity; also recorded: inhibition of mechanosensitivity of a subpopulation
same,Hm1a-induced mechanical hypersensitivity in the presence of the blocker,[2]; healthy mice,inhibits the sensitizing effect of Hm1a toxin; also recorded: prevents Hm1a-induced potentiation
O=C(Nc1ccc(S(=O)(=O)Nc2nccs2)cc1)C(c1ccccc1)c1ccccc1 [ICA-121431],Hm1a-evoked calcium responses,"[3]; blocker 500 nM, Hm1a 500 nM, embryonic DRG and P0 mouse TG cultures",greatly diminishes
same,responses to SGTx1,[3]; in presence of ICA-121431,only partially blocks
same,CVH sensitized fibers with reduced mechanosensory responses,"[2]; CVH mice, blocker 500 nM",70%
same,subpopulation of CVH colonic afferents inhibited (inhibited/fibers),"[2]; CVH mice, blocker 500 nM",7/10
same,mechanosensitivity of colonic nociceptors,"[2]; CVH mice, ICA-121431 500 nM",levels resembling those of baseline controls
same,Hm1a-induced mechanical hypersensitivity in the presence of the blocker,[2]; CVH mice,blocks the sensitizing effects of Hm1a
same,Hm1a-induced mechanical hypersensitivity in the presence of the blocker,"[2]; CVH mice, listed as ICA-121432",failed to induce mechanical hypersensitivity
same,fibers in which mechanical responses are reduced and Hm1a sensitization blocked,"[2]; healthy mice, blocker 500 nM",50%
same,population of colonic afferents inhibited (inhibited/fibers),"[2]; healthy mice, blocker 500 nM",5/10
same,Hm1a-induced mechanical hypersensitivity in the presence of the blocker,[2]; healthy mice,blocks Hm1a sensitization
same,Hm1a-induced mechanical hypersensitivity in the presence of the blocker,"[2]; healthy mice, listed as ICA-121432",failed to induce mechanical hypersensitivity
NC(N)=NC(N)=Nc1cccc(Cl)c1 [mCPBG],toxin-sensitive cells that also respond to the agonist,[3]; [5],52%
SGTx1,cohort of neurons excited compared with Hm1a,[3]; TG and embryonic DRG neurons,excites a larger cohort of TG and embryonic DRG neurons than Hm1a
C=CCN=C=S [mustard oil],toxin-sensitive cells that also respond to the agonist,[3]; [5],< 13%
CCCCC[C@H](O)/C=C/[C@H]1[C@H](O)CC(=O)[C@@H]1C/C=C\CCCC(=O)O [prostaglandin E2],percentage of toxin sensitive cells,[3]; sensitization of adult neurons prior to toxin exposure,greatly enhances
COc1cc(CNC(=O)CCCC/C=C/C(C)C)ccc1O [capsaicin],toxin-sensitive P0 neurons that respond to the agonist (in words),[3]; [5],only a third
NC1=N[C@H](O)[C@H]2[C@H]3O[C@]4(O)O[C@@H]([C@@H](O)[C@@]2(N1)[C@@H]4O)[C@]3(O)CO [Tetrodotoxin],Hm1a-evoked calcium responses,[3],blocked
δ-theraphotoxin-Hm1b,sensitization to mechanical stimulation,[4],Equivalent mechanical sensitization
CC1CCC(C(C)C)C(O)C1 (centres unmarked) [menthol],toxin-sensitive cells that also respond to the agonist,[3],38%
